Here are results for one substance from patent US20030017976A1, “Therapeutic properties of liposome-encapsulated immunomodulators” (priority 1998, published 2003).

One experiment relates to CT-26P colon carcinoma. Description: Combination therapy of CT-26P colon carcinoma with CPT-11 and oral liposomal JBT3002. Format: in vivo, mouse. To be noted: day 17. The method, then: This course of therapy was repeated weekly for about three weeks prior to tissue harvest. Experimental Groups/Procedures: 40 Balb/c mice were divided into 8 groups of 5 mice each. On day 0, the spleens of the mice were injected with 15,000 cultured CT-26P cells. The groups were then treated as follows: The spleens of Balb/c mice were injected with 15,000 cultured CT-26P colon carcinoma cells on day 0. […] Treated mice received two weeks of chemotherapy and three weeks of the macrophage activator. Tissues were harvested on day 17. The spleens and livers were weighed, the extent of metastasis was graded (denoted below) and histology prepared.

The subject of a further experiment is CT-26 colon carcinoma. Put plainly: Therapy of experimental liver metastasis of CT-26 colon carcinoma with CPT-11 and oral JBT 3002.
For a further experiment, the system named is human monocytes. Description: Western blot of tyrosine phosphorylation, JNK1 band shift, MAP kinase activation in monocytes. Format: cell-based. To be noted: 20 min. The method, then: After two washes with PBS containing 1 mM Na3 VO4 and 5 mM EDTA, the cells were scraped into 0.1 ml lysis buffer (1% Triton X-100, 20 mM Tris pH 8.0, 137 MM NaCl, 10% glycerol, 1 mM Na3 VO4, 2 mM EDTA, 1 mM PMSF, 20 μM leupeptin, 0.15 U/ml aprotinin). The lysate was placed on ice for 20 min and then centrifuged at 14,000 rpm for 10 min at 4° C. The samples (50 μg) were mixed with sample buffer (62.5 mM Tris/HCl, pH 6.8, 2.3% SDS, 100 mM DTT, and 0.05% bromophenol blue), boiled and, separated on 10% SDS-PAGE. The protein was then transferred onto 0.45 μm nitrocellulose membranes. The filter was blocked with 3% BSA and 1% ovalbumin (ICN Biomedicals, Inc.) in TBS (20 mM Tris/HCl, pH 7.5, 150 mM NaCl), probed with antibodies as indicated in the Results in TTBS (TBS containing 0.1% Tween 20), incubated with a second antibody in the buffer, and visualized by the ECL Western blotting detection system (Dong, Z., et al. J Exp. Med. (1993) 177:1071; Dong, Z. et al. J. Leukoc. Biol. (1993) 58:725).
(In general: Immunoblotting shows a protein as a band on a membrane.)

Another experiment has as its system tumor cells. Description: Macrophage-mediated tumor cytotoxicity, target cells not named. In kind it is cell-based. To be noted: available in MLV to 1×10^5 cells. The method, then: Cytotoxicity was assayed by measuring release of radioactivity from target cell DNA as described previously (Dong Z, et al. J Exp Med (1993) 177:1071-7). Briefly, tumor target cells in their exponential growth phase were incubated in medium containing 0.25 μCi/ml of [^3H]TdR (sp. Act. 2 Ci/mmol) (ICN Biomedicals, Inc., Irvine, Calif.) for 24 h. The cells were washed three times with HBSS to remove unbound radioactivity and then harvested by trypsinization (0.25% trypsin in 0.02% EDTA), washed, and resuspended in medium. Cells were plated (at 1×10^4/well) into wells containing control or test macrophages to achieve an E/T cell ratio of 10:1. At this density, macrophages incubated in medium (control) were not cytotoxic to neoplastic cells (Weinstein SL, et al. Proc Natl Acad Sci USA (1991) 88:4148-52; Dong Z, et al. JLeukoc Biol (1993) 53:53-60). […] The lysate was harvested with harvester 96 (Tomtec, Orange, Conn.) and counted for residual radioactivity in a liquid scintillation counter. Macrophage-mediated cytotoxicity was calculated as follows: […]
Efficient activation of macrophages by LPS requires priming by IFN-γ (Saiki I, et al. J Immunol (1985) 135:684-8). […] Tumor cytotoxicity was measured 72 h after the addition of radiolabeled tumor cells to the activated macrophages. […]

The subject of the next experiment is human blood monocytes. Description: ELISAs for TNF-α, IL-1β and IL-6 in human blood monocytes. In kind it is cell-based. The method, then: Blood-cells buff coats were obtained on the day of collection from the Gulf Coast Regional Blood Center (Houston, Tex.). The buffy coats were diluted with HBSS and layered on to 15 ml of prescreened entotoxin-free lymphocyte separation medium (Ficoll-Hypaque; density: 1.077). After 10 min of centrigugation at 1500×g, the mononuclear fractions were collected, washed once, and resuspended in 20 ml of elutriation medium (2% human albumin-100 U/mi penicillin and 100 μg/ml streptomycin in PBS). Monocyte-rich fractions were isolated by countercurrent elutriation using a JE-6B elutriation rotator (B3eckman) as described in detail previously (Fidler, I. et al. Prog. Clin. Biol. Res. (1989) 288:169). At a speed of 3000 rpm and flow rate of 41 ml/min, the monocyte fraction was obtained; it contained >90-95% monocytes as identified by nonspecific esterase staining morphological examination; they were >95% viable as measured by the trypan blue exclusion test. The cells were incubated in serum-free EMEM for 18 h prior to assays.
After overnight incubation in serum-free EMEM, monocytes plated at the density of 1×10^5/38-mm^2well /200 μl of EMEM (96-well plates) were treated as indicated in the Results section. The culture supernatants were harvested and used immediately or stored at −70° C. The supernatants were diluted at 1:5 or 1:10 and assayed for cytokines using ELISA kits according to the manufacturer's instructions.

A further experiment concerns IL-15. Put plainly: Ileum and liver lesion histology, BrdUrd and IL-15 expression after JBT 3002 and CPT-11. The settings on record: mouse, in vivo. Format: in vivo, mouse. The protocol: BALB/c mice were injected with CT-26 colon cancer cells into the spleen. […] Four days after the last injection of CPT-11, some mice were killed and their ileum was harvested and prepared for histology, immunohistochemistry, and molecular biology analyses.

Setting [1] is: Table 15, oral JBT 3002 0.05 μg/dose 3 consecutive days and/or CPT-11 100 mg/kg 4 daily i.p., day 21.
The mark [2] stands for this setting: Table 16, oral JBT3002 0.05 μg dose thrice weekly 3 weeks and/or CPT-11 100 mg/kg i.p. once a week, day 24.

Marks after values point to notes of the source that are not given here.

Take “N-hexadecanol-S-[2(R)-3-diodecanoyloxypropyl]-L-cysteinyl-L-alanyl-D-isoglutaminyl-glycyl-taurine sodium salt [JBT3002]”: in the experiment with CT-26P colon carcinoma (oral JBT3002 1 μg/dose in PC liposomes 3x/week alone), the “Spleen Weights, mean” value is reported as 1.137 ± 0.628 grams. In addition, in the experiment with CT-26P colon carcinoma (oral liposomal JBT3002 1 μg/dose 3x/week alone), the “Liver Weights, mean” value is recorded as 1.842 ± 0.498 grams. In addition, the “dose producing similar therapeutic effects as 1.0 μg/dose of MLV-JBT 3002” value with CT-26 colon carcinoma (Table 11) was determined as 0.01 μg/dose. In the experiment with CT-26 colon carcinoma (setting [1]), the “Liver metastasis Incidence” value is 9/10, the Liver weight is 1.6 ± 0.2^e g, the “Spleen tumor Incidence” value was 10/10 and the “Spleen tumor Mean tumor volume” value was 88 ± 34^f mm^3. For the same substance, in the experiment with CT-26 colon carcinoma (setting [2]), the “Liver metastasis Incidence” value was 9/10, the Liver weight is 4.2 ± 1.6 g, the “Spleen tumor Incidence” value is reported as 8/10 and the “Spleen tumor Mean tumor volume” value came to 241 ± 84 mm^3. In addition, the “potency relative to liposomal formulation” value in the experiment with CT-26 colon carcinoma (Tables 12 and 14) was “more potent than liposomal formulation”. For the same substance, in the experiment with human monocytes, the “potency in triggering intracellular signaling pathways” value was “significantly more potent than LPS”. In the experiment with tumor cells, the “minimal concentration of JBT3002 for significant activation of tumoricidal properties in PEM” value was found to be 1.5 ng. Also, the “incubation time at which TNF-α protein was detected” value with human blood monocytes (free-form JBT3002 1 ng/ml or MLV-JBT3002 100 nmol/well of 1 mg/300 μmol lipid) turned out to be 2 h. For the same substance, in the experiment with human blood monocytes (monocytes treated for 8 h), the “concentration range inducing TNF-α production” value was in the range of 0.001 to 10 ng/mL. Further, in the experiment on human blood monocytes (serum-free EMEM vs 5% FBS), the “serum dependence of cytokine production” value is on record as “not significantly altered in the absence of serum”. For the same substance, the “expression of IL-15 in the ileum” value in the experiment with IL-15 is “restores or augments this expression”.
